According to patent publication US7595003B2, “On-board water treatment and management process and apparatus” (priority 2004, dated 2009):
“And” between values parts separate entries of the source, which are not always exact repeats. Equal values may be shown once.

Tests used:
[1] = 20° C.; cited from earlier work
bacteria and fungi = assay: flowing system (Phase II): culture tests for the presence of bacteria and fungi; assay type: cell-based; parameters: key to growth in TM (test medium) / growth in M (malt broth) / growth in PM (peptonemethylamine broth) / growth in P (peptone broth) / growth in BP: Bacterial growth (Bac); Phytoplankton (PHY)
Description: Bigelow Laboratory inoculated 200 μL of sample into various media the day after the samples were collected. The flow rate, water pressure (PSI), temperature, ultrasonic treatment system (UTS) and ozone treatment values were provided by ETI. The hydrogen ion concentration (pH) and salinity values were determined at Bigelow Laboratory. Culture treatments included tests for the presence of bacteria and fungi [peptonemethylamine broth (PM), peptone broth (P), test medium (TM), malt broth (M)] and tests for the presence of phytoplankton [DY-V medium, freshwater (DYV), K medium, oceanic (K), L1+NH4, coastal (L1+NH4), black sea medium, brackish at 16 psu (Blk Sea), L1/24 medium, coastal at 24 psu (L1/24), Prov medium, coastal enriched with soil extract (Prov)]. Bacterial growth (Bac) developed in all of the bacterial test media. Phytoplankton (PHY) grew in all algal growth media (see footnotes for details).
(§1) A summary of data is provided in Table 6, below, from a second batch of harbor water samples that were likewise examined by Bigelow Laboratory the day after they were collected. 200 μL of sample was inoculated into various media. The flow rate, water pressure (PS), temperature, ultrasonic treatment system (UTS) and ozone treatment values were provided by ETI. The hydrogen ion concentration (pH) and salinity values were determined at Bigelow Laboratory. Culture treatments included tests for the presence of bacteria and fungi [peptonemethylamine broth (PM), peptone broth (P), test medium (TM), malt broth (M)] and tests for the presence of phytoplankton [DY-V medium, freshwater (DYV), K medium, oceanic (K), L1+NH4, coastal (L1+NH4), black sea medium, brackish at 16 psu (Blk Sea), L1/24 medium, coastal at 24 psu (L1/24), Prov medium, coastal enriched with soil extract (Prov)]. Bacterial growth (Bac) developed in all of the bacterial test media. Zooflagellates (Zoo) grew in all algal growth media from inlet and strainer samples but none from the outlet samples.
as §1, with “In table 7, below, a” for “A”, “provided” for “provided in Table 6, below,”, “all” for “all of the bacterial”, “media without ozone treatment or growth (Bac) developed” for “media. Zooflagellates (Zoo) grew”, “test” for “algal growth”, “without ozone treatment or with a flow rate over 30 gpm.” for “from inlet and strainer samples but none from the outlet samples.”
as §1, with “In table 8, below, a” for “A”, “provided” for “provided in Table 6, below,”, “(PSI),” for “(PS),”, “Bacterial growth (Bac) developed in all of the bacterial test media. Zooflagellates (Zoo) grew in all algal growth media from inlet and strainer samples but none from the outlet samples.” left out

[2] = test system: organisms contained in the ballast water; assay: batch challenge of unfortified actual ballast water; assay type: cell-based
Description: The basic approach was evaluated with batch challenging of actual ballast water. The water came from the hold of a ship originating from Port Moin, Costa Rica. Ballast water in the ship was sampled in the Port of Philadelphia, and the biota in the samples was characterized by the Bigelow Laboratory for Ocean Sciences. About 80% of the water was taken on or exchanged in the Caribbean, while it is believed that the remaining 20% came from the port of origin. The water had been in the ballast tanks for 21 days, and total ballast capacity of the vessel was 265 cubic meters. The samples were drawn at the 73 cubic meter level.
A challenge was made of unfortified ballast water (without B. subtilis endospores) to assess the killing of organisms contained in the ballast water. For this test, an applied ozone power of 660 watts was used with 0.8 m^3hr^−1. The samples were quenched by adding 10 ml of 1% sodium thiosulfate to the 1 L HDPE collection bottles prior to collecting the samples. A control sample without ozone treatment or quenchant was submitted along with a control containing the quenchant without treatment.
The treatment times for the samples were in one-minute increments from one to five minutes.

phytoplankton = assay: flowing system (Phase II): culture tests for the presence of phytoplankton; assay type: cell-based; parameters: key: Bacterial growth (Bac); Phytoplankton (PHY); details: outlet, 125 gpm, UTS Full, ozone Full (1.0 mg/L), 8 psu; samples 3A, 4A
[3] = ozone mass transport into water in acoustic reactor; assay type: physicochemical; details: high acoustic intensity (215 dB) versus low acoustic intensity (205 dB, nominally same as sparger)
Description: Adopting the same approach as above, acoustic energy at 205 and 215 dB re 1 μPa at 75 Hz was supplied along with the ozone over the same range of concentration. The acoustic pressure signal of the sonic devices was detected with a hydrophone sensor placed in the reactor. A typical 214 dB signal is shown in the captured trace in FIG. 11. In this series of experiments with a constant 1.5 mg/L concentration, the applied power of the ozone generator was constant; i.e., it was not controlled by the feedback of the dissolved ozone concentration controller. Higher intensity of applied acoustic energy appears to correlate to an increase in ozone mass transport. Utilizing the slopes of the ozone concentration curves, one can calculate an apparent mass transfer coefficient about 40% greater for the high acoustic intensity than for the low acoustic intensity, which was nominally the same as the sparger. This effect has been noted in other applications of ozone mixing, specifically in the oxidative treatment of waste streams. Intensity of this magnitude corresponds to pressure fluctuations of over 8 psi.

invertebrates = details: typical applications; cited from earlier work
Cryptosporidium oocysts = details: exposure for 1 minute; cited from earlier work
[4] = test system: B. subtilis var. niger endospores ATCC 9372; assay: batch challenge of B. subtilis endospores in deionized buffered water, plate count; assay type: cell-based, Bacillus subtilis
[5] = outlet, 125 gpm, UTS Full, ozone Full (1.0 mg/L), 8 psu, samples 3A, 4A
[6] = sample 17A: outlet, 10 gpm, UTS Full, ozone 60.0%, 7 psu
[7] = sample 20A: outlet, 30 gpm, UTS Full, ozone 60.0%, 7 psu
[8] = sample 23A: outlet, 50 gpm, UTS Full, ozone 60.0%, 7 psu
[9] = sample 26A: outlet, 88 gpm, UTS Full, ozone 60.0%, 7 psu
[10] = sample 35A: outlet, 50 gpm, UTS Full, ozone Full (1.0 mg/L), 9 psu, one of the triplicate cultures had bacteria
[11] = sample 36A: outlet, 50 gpm, UTS Off, ozone Full (1.0 mg/L), 9 psu
[12] = sample 38A: outlet, 100 gpm, UTS Full, ozone Full (1.0 mg/L), 9 psu, triplicate
[13] = ozone power 660 watts, 0.8 m^3hr^−1, treatment 1 to 5 minutes

OBr [Hypobromous acid]
pKa [1]: 8.8

O=[O+][O-] [Ozone, ozone]
bacteria in outlet samples (bacteria and fungi; full ozone treatment, flow rates of 30 gpm or less, 21-day incubation): killed all bacteria | growth in M (malt broth) (bacteria and fungi; [5]): Bac | growth in P (peptone broth) (bacteria and fungi; [5]): Bac | growth in PM (peptonemethylamine broth) (bacteria and fungi; [5]): Bac | growth in TM (test medium) (bacteria and fungi; [5]): Bac | growth in M (malt broth) (bacteria and fungi; [6]): Bac | growth in P (peptone broth) (bacteria and fungi; [6]): Bac | growth in PM (peptonemethylamine broth) (bacteria and fungi; [6]): Bac | growth in TM (test medium) (bacteria and fungi; [6]): Bac | growth in M (malt broth) (bacteria and fungi; [7]): Bac | growth in P (peptone broth) (bacteria and fungi; [7]): Bac | growth in PM (peptonemethylamine broth) (bacteria and fungi; [7]): Bac | growth in TM (test medium) (bacteria and fungi; [7]): Bac | growth in M (malt broth) (bacteria and fungi; [8]): Bac | growth in P (peptone broth) (bacteria and fungi; [8]): Bac | growth in PM (peptonemethylamine broth) (bacteria and fungi; [8]): Bac | growth in TM (test medium) (bacteria and fungi; [8]): Bac | growth in M (malt broth) (bacteria and fungi; [9]): Bac | growth in P (peptone broth) (bacteria and fungi; [9]): Bac | growth in PM (peptonemethylamine broth) (bacteria and fungi; [9]): Bac | growth in TM (test medium) (bacteria and fungi; [9]): Bac | growth in M (malt broth) (bacteria and fungi; [10]): Bac^3 | growth in PM (peptonemethylamine broth) (bacteria and fungi; [10]): Bac^2 | growth in TM (test medium) (bacteria and fungi; [10]): Bac^3 | growth in BP (bacteria and fungi; [11]): Bac | growth in M (malt broth) (bacteria and fungi; [11]): Bac | growth in TM (test medium) (bacteria and fungi; [11]): Bac | growth in BP (bacteria and fungi; [12]): Bac | growth in M (malt broth) (bacteria and fungi; [12]): Bac | growth in PM (peptonemethylamine broth) (bacteria and fungi; [12]): Bac | growth in TM (test medium) (bacteria and fungi; [12]): Bac | culture media tests of treated samples ([2]; one-minute treated sample, DYU medium, the only positive of thirty tests): positive growth of a green coccoid alga | bacteria and zooflagellates in treated samples [2, 13]: positive | ciliates, dinoflagellates, nematodes in treated samples [2, 13]: no ciliates, dinoflagellates, nematodes, etc., observed | life in treated samples [2, 13]: nearly devoid of life | growth in Blk Sea (black sea medium, brackish at 16 psu) (phytoplankton): PHY^6 | growth in DYV (DY-V medium, freshwater) (phytoplankton): PHY^3 | growth in K (K medium, oceanic) (phytoplankton): PHY^4 | growth in L1 + NH4 (coastal) (phytoplankton): PHY^5 | growth in L1/24 (coastal at 24 psu) (phytoplankton): PHY^7 | growth in Prov (coastal enriched with soil extract) (phytoplankton): PHY^8 | apparent mass transfer coefficient, increase [3]: about 40% | contact dosage needed to kill invertebrates (invertebrates): ~0.3 mg/L | ozone concentration killing Cryptosporidium oocysts (Cryptosporidium oocysts): about 1.5 mg/L | ozone concentration time value required to lower viable B. subtilis endospores by 99.9% ([4]; buffered water (pH 7.8), no additional ozone demand): about 4 | log 3 ozone concentration time value ([4]; ozone only (diffuser), no acoustic energy, deionized water): 4.46 and 4.5 | log of colony forming units per mL ([4]; ozone setpoint 1.5 mg/L, diffuser, no acoustic energy, deionized water, at 5 minutes, about 5 at 0 minutes): about 2 | log 3 ozone concentration time value ([4]; ozone with acoustic energy, intensity increased to 215 dB, 75 Hz, deionized water): 4.0
